Measured values reported in patent US20100278897A1, “INTRAOCULAR BIOACTIVE AGENT DELIVERY SYSTEM WITH MOLECULAR PARTITIONING SYSTEM” (ALLERGAN, INC., priority 2009, published 2010).

Assay: Elimination of Compound A from the eye
Assay type: in vivo
Details: intraocular

SMILES: Cc1ccoc1C(=O)Nc1cccc(C#Cc2cncc(C(=O)N=[S@](=O)(CCCN3CCN(CCOCCO)CC3)c3ccccc3)c2)c1 [Compound A]
- half-life of elimination from the eye: a few hours
